{"source": "patent US12077503B2", "about": "“Substituted cyclic amides and their use as herbicides” (FMC CORPORATION, priority 2015, dated 2024)", "assay_type_in_all_cases": "in vivo", "key": {"[1]": {"tested_on": "redroot pigweed (Amaranthus retroflexus)", "test": "Test G Post-Emergence Protocol", "settings": "Amaranthus retroflexus, post-emergence, 312 h", "how_it_was_run": "(§1)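 Eight days post-sowing, plants received a spray of test compound (acetone/water 50:50, 0.5% Tween 20) at 15.625, 62.5 or 250 g/ha. Glasshouse regime thereafter: 24/16 °C, 14 h light, 65% humidity. Assessment after 13 days on a 0–100 damage scale.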"}, "[2]": {"tested_on": "velvetleaf (Abutilon theophrasti)", "test": "Test G Post-Emergence Protocol", "settings": "Abutilon theophrasti, post-emergence, 312 h", "how_it_was_run": "as §1"}, "corn (Zea mays) [3]": {"tested_on": "corn (Zea mays)", "test": "Test G Post-Emergence Protocol", "settings": "Zea mays, post-emergence, 312 h", "how_it_was_run": "as §1"}, "[4]": {"tested_on": "giant foxtail (Setaria faberi)", "test": "Test G Post-Emergence Protocol", "settings": "Setaria faberi, post-emergence, 312 h", "how_it_was_run": "as §1"}, "[5]": {"tested_on": "ivy-leaved morning glory (Ipomoea hederacea)", "test": "Test G Post-Emergence Protocol", "settings": "Ipomoea, post-emergence, 312 h", "how_it_was_run": "as §1"}, "[6]": {"tested_on": "barnyardgrass (Echinochloa crus-galli)", "test": "Test G Post-Emergence Protocol", "settings": "Echinochloa crus-galli, post-emergence, 312 h", "how_it_was_run": "as §1"}, "[7]": {"tested_on": "redroot pigweed (Amaranthus retroflexus)", "test": "Test G Pre-Emergence Protocol", "settings": "Amaranthus retroflexus, pre-emergence, 312 h, evaluated after 13 days", "how_it_was_run": "(§2)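 Pots of seeds in standard soil were grown for one day in a glasshouse (24/16 °C day/night, 14 h light, 65% humidity), then sprayed with compound in acetone/water 50:50 with 0.5% Tween 20 at 15.625, 62.5 or 250 g/ha. Damage was scored after 13 days on a 0 (none) to 100 (total) scale.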"}, "[8]": {"tested_on": "velvetleaf (Abutilon theophrasti)", "test": "Test G Pre-Emergence Protocol", "settings": "Abutilon theophrasti, pre-emergence, 312 h, evaluated after 13 days", "how_it_was_run": "as §2"}, "corn (Zea mays) [9]": {"tested_on": "corn (Zea mays)", "test": "Test G Pre-Emergence Protocol", "settings": "Zea mays, pre-emergence, 312 h, evaluated after 13 days", "how_it_was_run": "as §2"}, "[10]": {"tested_on": "giant foxtail (Setaria faberi)", "test": "Test G Pre-Emergence Protocol", "settings": "Setaria faberi, pre-emergence, 312 h, evaluated after 13 days", "how_it_was_run": "as §2"}, "[11]": {"tested_on": "ivy-leaved morning glory (Ipomoea hederacea)", "test": "Test G Pre-Emergence Protocol", "settings": "Ipomoea, pre-emergence, 312 h, evaluated after 13 days", "how_it_was_run": "as §2"}, "[12]": {"tested_on": "barnyardgrass (Echinochloa crus-galli)", "test": "Test G Pre-Emergence Protocol", "settings": "Echinochloa crus-galli, pre-emergence, 312 h, evaluated after 13 days", "how_it_was_run": "as §2"}}, "data": [{"smiles": "Cc1cc(C(F)(F)F)ccc1[C@@H]1CN(C)C(=O)[C@H]1C(=O)Nc1ccccc1F", "note": "(racemic) [Compound 1415]", "values": [{"measurement": "pest or weed control at 15.625 g/ha", "setting": "[1]; 15.625 g ai/ha, evaluated after 13 days (100=total damage to plant; 0=no damage to plant), read-out: Pigweed, Redroot damage rating", "result": 10, "unit": "%"}, {"measurement": "pest or weed control at 62.5 g/ha", "setting": "[1]; 62.5 g ai/ha, evaluated after 13 days, read-out: Pigweed, Redroot damage rating (100=total damage to plant; 0=no damage to plant)", "result": 10, "unit": "%"}, {"measurement": "pest or weed control at 250 g/ha", "setting": "[1]; 250 g ai/ha, evaluated after 13 days, read-out: damage to plant, Pigweed, Redroot (100=total damage to plant; 0=no damage to plant)", "result": 30, "unit": "%"}, {"measurement": "pest or weed control at 15.625 g/ha", "setting": "[2]; 15.625 g ai/ha, evaluated after 13 days (100=total damage to plant; 0=no damage to plant), read-out: Velvetleaf damage rating", "result": 10, "unit": "%"}, {"measurement": "pest or weed control at 62.5 g/ha", "setting": "[2]; 62.5 g ai/ha, evaluated after 13 days, read-out: Velvetleaf damage rating (100=total damage to plant; 0=no damage to plant)", "result": 0, "unit": "%"}, {"measurement": "pest or weed control at 250 g/ha", "setting": "[2]; 250 g ai/ha, evaluated after 13 days, read-out: damage to plant, Velvetleaf (100=total damage to plant; 0=no damage to plant)", "result": 20, "unit": "%"}, {"measurement": "plant injury at 15.625 g/ha", "setting": "corn (Zea mays) [3]; 15.625 g ai/ha, evaluated after 13 days (100=total damage to plant; 0=no damage to plant), read-out: Corn damage rating", "result": 20, "unit": "%"}, {"measurement": "plant injury at 62.5 g/ha", "setting": "corn (Zea mays) [3]; 62.5 g ai/ha, evaluated after 13 days, read-out: Corn damage rating (100=total damage to plant; 0=no damage to plant)", "result": 10, "unit": "%"}, {"measurement": "plant injury at 250 g/ha", "setting": "corn (Zea mays) [3]; 250 g ai/ha, evaluated after 13 days, read-out: damage to plant, Corn (100=total damage to plant; 0=no damage to plant)", "result": 20, "unit": "%"}, {"measurement": "pest or weed control at 15.625 g/ha", "setting": "[4]; 15.625 g ai/ha, evaluated after 13 days (100=total damage to plant; 0=no damage to plant), read-out: Foxtail, Giant damage rating", "result": 20, "unit": "%"}, {"measurement": "pest or weed control at 62.5 g/ha", "setting": "[4]; 62.5 g ai/ha, evaluated after 13 days, read-out: Foxtail, Giant damage rating (100=total damage to plant; 0=no damage to plant)", "result": 60, "unit": "%"}, {"measurement": "pest or weed control at 250 g/ha", "setting": "[4]; 250 g ai/ha, evaluated after 13 days, read-out: damage to plant, Foxtail, Giant (100=total damage to plant; 0=no damage to plant)", "result": 70, "unit": "%"}, {"measurement": "pest or weed control at 15.625 g/ha", "setting": "[5]; 15.625 g ai/ha, evaluated after 13 days (100=total damage to plant; 0=no damage to plant), read-out: Morningglory, Ivy-leaved damage rating", "result": 10, "unit": "%"}, {"measurement": "pest or weed control at 62.5 g/ha", "setting": "[5]; 62.5 g ai/ha, evaluated after 13 days, read-out: Morningglory, Ivy-leaved damage rating (100=total damage to plant; 0=no damage to plant)", "result": 10, "unit": "%"}, {"measurement": "pest or weed control at 250 g/ha", "setting": "[5]; 250 g ai/ha, evaluated after 13 days, read-out: damage to plant, Morningglory, Ivy-leaved (100=total damage to plant; 0=no damage to plant)", "result": 20, "unit": "%"}, {"measurement": "pest or weed control at 15.625 g/ha", "setting": "[6]; 15.625 g ai/ha, evaluated after 13 days (100=total damage to plant; 0=no damage to plant), read-out: Barnyardgrass damage rating", "result": 20, "unit": "%"}, {"measurement": "pest or weed control at 62.5 g/ha", "setting": "[6]; 62.5 g ai/ha, evaluated after 13 days, read-out: Barnyardgrass damage rating (100=total damage to plant; 0=no damage to plant)", "result": 30, "unit": "%"}, {"measurement": "pest or weed control at 250 g/ha", "setting": "[6]; 250 g ai/ha, evaluated after 13 days, read-out: damage to plant, Barnyardgrass (100=total damage to plant; 0=no damage to plant)", "result": 60, "unit": "%"}, {"measurement": "pest or weed control at 15.625 g/ha", "setting": "[7]; 15.625 g ai/ha, read-out: Pigweed, Redroot damage rating (100=total damage to plant; 0=no damage to plant)", "result": 10, "unit": "%"}, {"measurement": "pest or weed control at 62.5 g/ha", "setting": "[7]; 62.5 g ai/ha, 100=total damage to plant, 0=no damage to plant, read-out: plant damage rating, Pigweed, Redroot", "result": 0, "unit": "%"}, {"measurement": "pest or weed control at 250 g/ha", "setting": "[7]; 250 g ai/ha, read-out: Pigweed, Redroot damage rating (100=total damage to plant; 0=no damage to plant)", "result": 10, "unit": "%"}, {"measurement": "pest or weed control at 15.625 g/ha", "setting": "[8]; 15.625 g ai/ha, read-out: Velvetleaf damage rating (100=total damage to plant; 0=no damage to plant)", "result": 0, "unit": "%"}, {"measurement": "pest or weed control at 62.5 g/ha", "setting": "[8]; 62.5 g ai/ha, 100=total damage to plant, 0=no damage to plant, read-out: plant damage rating, Velvetleaf", "result": 0, "unit": "%"}, {"measurement": "pest or weed control at 250 g/ha", "setting": "[8]; 250 g ai/ha, read-out: Velvetleaf damage rating (100=total damage to plant; 0=no damage to plant)", "result": 0, "unit": "%"}, {"measurement": "plant injury at 15.625 g/ha", "setting": "corn (Zea mays) [9]; 15.625 g ai/ha, read-out: Corn damage rating (100=total damage to plant; 0=no damage to plant)", "result": 0, "unit": "%"}, {"measurement": "plant injury at 62.5 g/ha", "setting": "corn (Zea mays) [9]; 62.5 g ai/ha, 100=total damage to plant, 0=no damage to plant, read-out: plant damage rating, Corn", "result": 0, "unit": "%"}, {"measurement": "plant injury at 250 g/ha", "setting": "corn (Zea mays) [9]; 250 g ai/ha, read-out: Corn damage rating (100=total damage to plant; 0=no damage to plant)", "result": 0, "unit": "%"}, {"measurement": "pest or weed control at 15.625 g/ha", "setting": "[10]; 15.625 g ai/ha, read-out: Foxtail, Giant damage rating (100=total damage to plant; 0=no damage to plant)", "result": 10, "unit": "%"}, {"measurement": "pest or weed control at 62.5 g/ha", "setting": "[10]; 62.5 g ai/ha, 100=total damage to plant, 0=no damage to plant, read-out: plant damage rating, Foxtail, Giant", "result": 70, "unit": "%"}, {"measurement": "pest or weed control at 250 g/ha", "setting": "[10]; 250 g ai/ha, read-out: Foxtail, Giant damage rating (100=total damage to plant; 0=no damage to plant)", "result": 80, "unit": "%"}, {"measurement": "pest or weed control at 15.625 g/ha", "setting": "[11]; 15.625 g ai/ha, read-out: Morning-glory, Ivy-leaved damage rating (100=total damage to plant; 0=no damage to plant)", "result": 0, "unit": "%"}, {"measurement": "pest or weed control at 62.5 g/ha", "setting": "[11]; 62.5 g ai/ha, 100=total damage to plant, 0=no damage to plant, read-out: plant damage rating, Morningglory, Ivy-leaved", "result": 0, "unit": "%"}, {"measurement": "pest or weed control at 250 g/ha", "setting": "[11]; 250 g ai/ha, read-out: Morningglory, Ivy-leaved damage rating (100=total damage to plant; 0=no damage to plant)", "result": 0, "unit": "%"}, {"measurement": "pest or weed control at 15.625 g/ha", "setting": "[12]; 15.625 g ai/ha, read-out: Barnyard grass damage rating (100=total damage to plant; 0=no damage to plant)", "result": 10, "unit": "%"}, {"measurement": "pest or weed control at 62.5 g/ha", "setting": "[12]; 62.5 g ai/ha, 100=total damage to plant, 0=no damage to plant, read-out: plant damage rating, Barnyardgrass", "result": 50, "unit": "%"}, {"measurement": "pest or weed control at 250 g/ha", "setting": "[12]; 250 g ai/ha, read-out: Barnyardgrass damage rating (100=total damage to plant; 0=no damage to plant)", "result": 70, "unit": "%"}]}]}
